For series [1] the following is noted: cited from earlier work; for increase in drug exposure with a high-fat meal: CI-1040 at 800 and 1,600 mg.
The format of series [2] is in vivo, human. The conditions noted are these: for AUC0–t, geometric mean / AUC, geometric mean / Cmax, geometric mean / t1/2, geometric mean / tmax, median / CL/F, geometric mean / Vd/F: PP population; for time up to which measurable plasma concentrations were observed: both fed and fasted periods; for Vd/F: Vz/F, geometric mean.
In another series the test system is purified MEK1. The conditions noted are these: cited from earlier work.
The conditions of series [3]: cited from earlier work.
Another series in a line: Safety and tolerability. The series is classed as in vivo, human.
Series [4] deals with advanced solid malignancies. Kind of series: Objective tumor response by RECIST 1.0. The series is classed as in vivo, human. To be noted: 28 evaluable patients, both cutaneous melanoma.
Series [5] in a line: Classification by permeability and solubility. To be noted: tentative; class IV = low permeability and low solubility.
Series [6] concerns various other kinases, enzymes, receptors, ion channels, and transporters. To be noted: cited from earlier work.
The conditions of series [7]: ref data on file, cited from earlier work.
The next series relates to Caco-2 cells. To be noted: ref data on file; cited from earlier work.
For series [8] the following is noted: in vivo; cited from earlier work.
Where [9] appears, read: Fasted, metabolite after 75 mg selumetinib.
[10] abbreviates: Fed, metabolite after 75 mg selumetinib.
Where [11] appears, read: AEs ≥10% of patients, safety population N = 30.
Where [12] appears, read: reported in ≥2 patients, safety population, Total (N = 11).

For orientation: AUC(0-t) means exposure summed from dosing to a finite time, without extrapolation to infinity. A higher AUC(0-t) goes with more exposure. In general, Vd/F refers to the apparent distribution volume after extravascular dosing. By IC50 is commonly meant the concentration at which inhibition is half-maximal. What is called solubility is how much of the substance goes into solution per volume.

Molecules are shown by their SMILES. Values after ≈ are worked out from the molar mass of the structure shown. Where two headings read alike, the source gives them in different places. Marks after values point to notes of the source that are not given here.

As to `O=C(NOCC1CC1)c1ccc(F)c(F)c1Nc1ccc(I)cc1Cl` [CI-1040], the “increase in drug exposure with a high-fat meal” value in series [1] is reported as 4.5 fold. The “MTD and recommended Phase II dose (RP2D)” value in series [1] (administered with food) is 800 mg BID.
`O=C(NOCCO)c1cc2nc[nH]c2c(F)c1Nc1ccc(Br)cc1Cl` [N-desmethyl-selumetinib]: in series [2] (setting [9]), the “AUC0–t, geometric mean” value was 376.4 ng/h/mL; the “AUC, geometric mean” value is 418.4 ng·h/mL; the “Cmax, geometric mean” value is on record as 73.9 ng/mL; the “t1/2, geometric mean” value came out at 7.7 h. The “tmax, median” value in series [2] (setting [9]) is listed as 1.50^a h. Also, in [2] (setting [10]), the “AUC0–t, geometric mean” value came out at 282.4 ng/h/mL; the “AUC, geometric mean” value is 379.1 ng·h/mL; the “Cmax, geometric mean” value worked out at 33.5 ng/mL; the “t1/2, geometric mean” value amounted to 6.8 h. Further, the “tmax, median” value in [2] (setting [10]) is recorded as 4.0^a h. Also, the “time up to which measurable plasma concentrations were observed” value in series [2] is given as “up to 24 h”. The ratio of N-desmethyl-selumetinib to selumetinib (metabolite to parent) in series [2] (fasted state) worked out at 0.07. Also, in series [2] (fed state), the ratio of N-desmethyl-selumetinib to selumetinib (metabolite to parent) was 0.06. The “delay of median tmax in the fed condition” value in series [2] (metabolite after 75 mg selumetinib) is listed as “approximately 3 h”. The “greater potency for MEK1 inhibition than selumetinib” value in the series on purified MEK1 (in vitro) is 3- to 5 fold. Besides, in [3] (plasma metabolite exposure), the “AUC relative to parent compound” value is recorded as less than 15% and the “Cmax relative to parent compound” value was less than 15%.
As for `O=C(O)c1ccc(F)c(F)c1Nc1ccc(I)cc1Cl` [PD-0184264], the “increase in drug exposure with a high-fat meal” value in series [1] is 5 fold.
In the case of `Cn1cnc2c(F)c(Nc3ccc(Br)cc3Cl)c(C(N)=O)cc21` [selumetinib amide], the “less active than selumetinib” value in the series on purified MEK1 is reported as “up to 50 fold”.
With `Cn1cnc2c(F)c(Nc3ccc(Br)cc3Cl)c(C(=O)NOCCO)cc21` [selumetinib], the “delay of median tmax in the presence of food” value in series [2] (75 mg, fed minus fasted) is “approximately 2.5 h”. In addition, the “CL/F, geometric mean” value in series [2] (Fasted) came to 12.9 L/h. Besides, the “CL/F, geometric mean” value in series [2] (Fed) turned out to be 16.0 L/h. Further, in series [2], the “time up to which measurable plasma concentrations were observed” value is listed as “up to 48 h”. The same molecule had an AUC(0-t) in series [2] (human, plasma, oral, 75 mg) of 5640 ng·h/mL. In series [2] (human, plasma, oral, 75 mg, Fasted), this molecule had a Vd/F of 175 L. Moreover, the Vd/F in series [2] (human, plasma, oral, 75 mg, Fed) amounted to 199 L. Also, in the series “Safety and tolerability” (75 mg, advanced cancer population), the “tolerability / safety profile” value is recorded as “well tolerated”. Further, in the series “Safety and tolerability” (setting [11]), the “Abdominal pain, number (%) of patients” value is recorded as 8 (26.7) Number (%) of patients; the “Anemia, number (%) of patients” value is listed as 7 (23.3) Number (%) of patients; the “Constipation, number (%) of patients” value is reported as 11 (36.7) Number (%) of patients; the “Diarrhea, number (%) of patients” value is 14 (46.7) Number (%) of patients. In “Safety and tolerability” (setting [11]), the “Dizziness, number (%) of patients” value is 8 (26.7) Number (%) of patients; the “Dyspnoea, number (%) of patients” value was 10 (33.3) Number (%) of patients; the “Edema peripheral, number (%) of patients” value is 7 (23.3) Number (%) of patients; the “Fatigue, number (%) of patients” value is given as 13 (43.3) Number (%) of patients. Besides, in “Safety and tolerability” (setting [11]), the “Headache, number (%) of patients” value is listed as 7 (23.3) Number (%) of patients; the “Nausea, number (%) of patients” value was 18 (60.0) Number (%) of patients; the “Rash, number (%) of patients” value is 16 (53.3) Number (%) of patients; the “Vomiting, number (%) of patients” value is given as 9 (30.0) Number (%) of patients. For the same molecule, in “Safety and tolerability” (extension part, 75 mg BD, largely due to AEs (n = 6)), the “patients with one or more dose reductions” value is on record as 10 patients. In the series “Safety and tolerability” (intestinal perforation due to disease progression), the “patients who died whilst on study” value is on record as 3.3%. For the same molecule, the “patients with grade 4 AEs” value in “Safety and tolerability” (not considered causally related to study treatment) is on record as 6.7%. In addition, the “patients reporting an AE of grade 3 or higher” value in the series “Safety and tolerability” (overall safety population, 30 patients) worked out at 60.0%. Besides, in “Safety and tolerability” (setting [12]), the “Abdominal pain, SAE of ≥CTC grade 3, number (%) of patients” value is given as 2 (6.7) Number (%) of patients; the “Anemia, SAE of ≥CTC grade 3, number (%) of patients” value is 2 (6.7) Number (%) of patients; the “Constipation, SAE of ≥CTC grade 3, number (%) of patients” value is 2 (6.7) Number (%) of patients; the “Dyspnoea, SAE of ≥CTC grade 3, number (%) of patients” value was 3 (10.0) Number (%) of patients. For the same molecule, the “Vomiting, SAE of ≥CTC grade 3, number (%) of patients” value in the series “Safety and tolerability” (setting [12]) is listed as 2 (6.7) Number (%) of patients. This molecule displayed a partial responses in series [4] of 7.1%. For the same molecule, the “class (permeability/solubility classification)” value in series [5] was “tentative class IV”. In addition, the IC50 with purified MEK1 (read-out: IC50 against purified MEK1) was 14 nM. Besides, in series [6], the “activity against various other kinases, enzymes, receptors, ion channels, and transporters” value is recorded as “did not show significant activity”. Further, the solubility in series [7] (pH1) is 274 µg/mL (≈ 599 µM). Moreover, the solubility in series [7] (pH 7.4) is 3.4 µg/mL (≈ 7.43 µM). Further, the “permeability across Caco-2 cells” value in the series with Caco-2 cells is “moderate permeability”. The route of excretion entry in series [8] is “predominantly via the feces”. In addition, in series [3] (across studied dose range), the “total body clearance from plasma after an oral dose (CL/F)” value is 12 to 23 L/h and the “volume of distribution at steady state (Vss/F)” value is recorded as 87 to 126 L. In [3] (single dose), the “terminal elimination half-life (t1/2)” value was 5 to 8 h.

(Values after publication PMC3220813 (Cancer Chemotherapy and Pharmacology, 2011).)
